Data on 7 molecules can be found in patent US20080227809A1, “Arylalkylamine Vanadium (V) Salts for the Treatment and/or Prevention of Diabetes Mellitus” (GENMEDICA THERAPEUTICS SL, priority 2004, published 2008).

Experiment [1] has as its system streptozotocin-induced diabetic rats with undetectable circulating insulin. Particulars: 2.5 μmol/kg subcutaneous by osmotic minipumps, streptozotocin 100 mg/kg.
Description: Male Wistar rats weighting 180-220 g were purchased from Harlan (Interfauna Ibèrica S.A., Spain). Diabetes was induced by a single intraperitoneal injection of a freshly prepared solution of streptozotocin (in some studies the dose was 45 mg/kg body weight and in some others 100 mg/kg body weight dissolved in 50 mM citrate buffer, pH 4.5). Only diabetic animals with glycemia above 300 mg/dl were used. The animals were housed in animal quarters at 22° C. with a 12 h light/12 h dark cycle and were fed ad libitum. All procedures used were approved by the animal ethical committee of the University of Barcelona, Spain.
Osmotic minipumps delivering B6V10 (2.5 μmol/kg body wt/day) or decavanadate (2.5 μmol/kg body wt/day) were implanted subcutaneously in diabetic rats anaesthetised by ketamine hydrochloride (95 mg/kg) and xylasine (10 mg/kg). […] Glycemia was measured on arterio-venous blood collected from the tail vessels at 09:00 am for two weeks, before the administration of vanadate. Insulin concentrations were determined before and after treatment. In another set of experiments, B6V10 was orally administered at a single dose of 5 μmol/kg/day during the first week and 10 μmol/kg/day during 2 additional weeks by gastric gavage. A control group received the corresponding decavanadate salt in the absence of benzylamine. At the end of the treatment, animals were sacrificed and the liver, fat pad, heart and lung were kept at −80° C. and the plasma at −20° C. until their use for in vitro analysis.
In glucose tolerance tests and in chronic treatments, circulating glucose concentrations were determined by a rapid glucose analyser (Accutrend® Sensor Comfort, Roche, Basel. Switzerland). Plasma insulin (IRI) concentration was determined by ELISA method using a kit obtained from Crystal Chem. Inc. (Downers Grove, Ill.).
To this end, rats were made diabetic by the injection of a large dose of streptozotocin (100 mg/kg) that eliminates β-pancreatic insulin content.
The next experiment concerns protein kinase B. The experiment can be described thus: protein kinase B phosphorylation in isolated rat adipocytes. It is filed as cell-based. Particulars: 25 μM. As to the method:
Isolated fat cells were disrupted for total membrane preparation by hypo-osmotic lysis in a 20 mM HES buffer and an antiprotease and antiphosphatase cocktail as reported by Abella et al. (2003, Diabetes 52: 1004-1013). Protein concentrations were determined by the Bradford method (Bradford, 1976, Anal. Biochem. 72: 248-254) with gamma-globulin as protein concentration standard. Immunoprecipitation and immunoblot assays were performed as previously described by Abella et al. (2004, Id.) with the use of a monoclonal antiphosphotyrosine antibody for the immunoprecipitation and an anti-insulin receptor antibody for immunobloting, respectively. SDS-polyacrylamide gel electrophoresis was performed on membrane proteins following conventional procedures. Proteins were transferred to Immobilon and immunoblotting was performed as reported by Castello et al. (1994, J. Biol. Chem. 269: 5905-5912).
The mechanism of action of B6V10 was investigated in isolated rat adipocytes. Adipose cells from Wistar rats were incubated for different times in the presence of 25 μM hexaquis(benzylammonium) decavanadate (B6V10). Cells were also incubated in the presence of insulin (100 nM, 45 min), decavanadate (25 μM, 45 min) or semicarbazide (1 mM, 45 min). Subsequently, 2-deoxyglucose uptake (results shown in FIG. 7A), tyrosine phosphorylation of insulin receptor (FIG. 7B), phospho-Thr^308-protein kinase B (FIG. 7C) and phospho-Ser^473-protein kinase B (FIG. 7D) was measured. […] The phosphorylation of protein kinase B induced by B6V10 was parallel to activation of glucose transport (FIGS. 7C and 7D).
(§1) The effects of incubation with semicarbazide or phosphatidylinositol 3-kinase inhibitors were also investigated. Adipose cells were incubated with B6V10 (25 μM, 45 min) in the absence or presence of wortmannin (2 μM, 45 min), LY294002 (10 μM, 45 min) or semicarbazide (1 mM, 45 min) and thereafter 2-deoxyglucose uptake was determined during 5 min. Activation of protein kinase B phosphorylation induced by B6V10 was blocked by semicarbazide and it was not observed by decavanadate. In addition, phosphatidylinositol 3-kinase inhibitors wortmannin and LY294002 blocked B6V10-induced glucose transport (FIG. 7E).

The test system of experiment [2] is streptozotocin-induced diabetic rats. In words: chronic subcutaneous (osmotic minipump) treatment, glycemia of streptozotocin (45 mg/kg) diabetic rats. Particulars: 2.5 μmol/kg/day subcutaneous by osmotic minipumps, about two weeks. In kind it is in vivo, rat. The procedure:
Insulin concentrations were determined before and after treatment.
The effect of chronic administration of hexaquis(benzylammonium) decavanadate on glycemia from diabetic rats was determined. Thus, diabetes was induced in rats by intravenous administration of streptozotocin, which destroys the β-pancreatic cells that produce insulin.
(§2) Chronic in vivo efficacy of B6V10 was evaluated in streptozotocin-induced diabetic rats and in db/db mice. Streptozotocin-induced (45 mg/kg) diabetic rats were subcutaneously treated with hexaquis(benzylammonium) decavanadate (2.5 μmol/kg) (B6V10, solid squares, FIG. 8A) or with decavanadate (2.5 μmol/kg) (V10, open circles, FIG. 8A) delivered subcutaneously by osmotic minipumps implanted in the dorsal region. Diabetic rats were also sham-operated (untreated, solid diamonds, FIG. 8A). […] These experiments were repeated using an oral administration protocol. Streptozotocin-induced (45 mg/kg) diabetic rats were orally treated with hexaquis(benzylammonium) decavanadate (5 μmol/kg from day 0 to day 7 and 10 μmol/kg/day from day 7 to day 17) (B6V10, solid squares, FIG. 8B) or received decavanadate (10 μmol/kg) (V10, open circles, FIG. 8B). Nondiabetic rats were also untreated (solid triangles, FIG. 8B).

A further experiment relates to isolated rat adipocytes. The experiment can be described thus: glucose transport (2-deoxyglucose uptake) in isolated rat adipocytes. In kind it is cell-based. Particulars: for stimulatory effect on glucose transport in the presence of semicarbazide: 1 mM semicarbazide (SSAO inhibitor); for stimulation of glucose transport at low concentration compared with A and B vanadium salts: 10 μM; for stimulation of glucose transport at low concentration compared with A and B vanadium salts / maximal stimulatory effect on glucose transport, compounds compared: vanadium salts; for maximal stimulatory effect on glucose transport, compounds compared: FIG. 6B. As to the method: In order to determine whether salts formed by vanadate and benzylamine could produce an insulin mimetic effect, the effect of increasing concentrations of hexaquis(benzylammonium) decavanadate on glucose transport activity in isolated rat adipocytes was tested. Hexaquis(benzylammonium) decavanadate induced the stimulation of glucose transport which was perceptible from concentrations of 0.5 μM, with a maximal effect observed 2.5 μM and the semimaximal effect above 1 μM. […] The maximum effect provoked by incubation with hexaquis(benzylammonium) decavanadate was greater than that produced by the presence of benzylamine and vanadate in combination (FIG. 1). […] In similar assays, the activity of hexaquis(benzylammonium) decavanadate, pentaquis(benzylammonium) decavanadate and tetraquis(benzylammonium) decavanadate on glucose transport activity in isolated rat adipocytes were analyzed.
To determine the possible insulin mimetic effect of certain vanadium arylalkylamines, the capacity of these compounds to enhance glucose transport in isolated rat adipocytes was tested. Adipose cells from Wistar rats were incubated for 45 minutes in basal conditions (Basal) or in the presence of 100 nM insulin (Ins), and different concentrations of. hexaquis(benzylammonium) decavanadate (B6V10) in the absence or in the presence of 1 mM semicarbazide (SCZ). Subsequently, 2-DG transport was measured over a 5 min. interval.
The effects of the three tested compounds (B6V10, B5V10 and B4V10) were compared. Adipose cells from Wistar rats were incubated for 45 minutes in basal conditions (Basal) or in the presence of 100 nM insulin (Ins), and different concentrations of. decavanadate (V10), hexaquis(benzylammonium) decavanadate (B6V10), pentaquis(benzylammonium) decavanadate (B5V10) or tetraquis(benzylammonium) decavanadate (B4V10) in the absence or in the presence of 1 mM semicarbazide (SCZ). 2-DG transport was measured over 5 min. intervals. […] The stimulation of all three compounds on glucose transport was blocked in the presence of semicarbazide.
In additional experiments, compounds shown in FIG. 6A (named 2-(4-fluoro-phenyl)-ethylamine (compound A), 3-phenyl-propylamine (compound B), 4-fluoro-benzylamine (compound C) and 4-phenyl-butylamine (compound D)) were assessed using the experimental methods set forth above for the capacity to stimulate 2-DG uptake in isolated rat adipocytes. Adipose cells from Wistar rats were incubated for 45 minutes in basal conditions (Basal) or in the presence of 100 nM insulin (Ins), and different concentrations of vanadium salts of 2-(4-fluoro-phenyl)-ethylamine (compound A), 3-phenyl-propylamine (compound B), 4-fluoro-benzylamine (compound C) and 4-phenyl-butylamine (compound D). 2-DG transport was measured over 5 min.
as §1

Experiment [3] relates to streptozotocin-induced diabetic rats. In words: chronic oral treatment, glycemia of streptozotocin (45 mg/kg) diabetic rats. As to conditions: for effect on glycemia: daily oral administration, 17 days. In kind it is in vivo, rat. The procedure:
The effect of the oral administration of hexaquis(benzylammonium) decavanadate on glycemia from diabetic rats was also studied. Diabetes was induced in rats by intravenous administration of streptozotocin, and subsequently, a hexaquis(benzylammonium) decavanadate or sodium decavanadate unique dose was administered to the rats. […] After seven days of treatment, the dose was increased at 10 μmol/kg/day which was maintained for an additional ten days. […] Thus, glycemia in sodium decavanadate treated rats was approximately 450 mg/dl and glycemia of hexaquis(benzylammonium) decavanadate treated rats was approximately 250 mg/dl.
as §2

[4] abbreviates: isolated rat adipocytes, 45 min incubation.

Regarding “sodium decavanadate [reference compound]”, the effect on glycemia entry in experiment [1] was “did not show any change in circulating glucose”; in experiment [2], “did not modify substantially its glycemia”; in experiment [2] (listed as V10), “did not alter glycemia”; in experiment [3], “not affected substantially”; in experiment [3] (listed as V10), “did not alter glycemia”. The “protein kinase B phosphorylation” value with protein kinase B is reported as “not observed”. For the same molecule, the “stimulation of glucose transport” value in the experiment on isolated rat adipocytes (alone at 5 to 50 μM) is recorded as “did not stimulate glucose transport”. The glycemia entry in experiment [3] (oral, after dosage increase to 10 μmol/kg/day) is “approximately 450 mg/dl”.

With “tetraquis(benzylammonium) decavanadate [Example B4V10]”, the “stimulatory effect on glucose transport in the presence of semicarbazide” value was “blocked” with isolated rat adipocytes and “inhibited” in the experiment on isolated rat adipocytes (listed as tetraquis(benzylammonium) decavanadate). In addition, the “stimulation of glucose transport” value with isolated rat adipocytes (setting [4]) is “pronounced stimulation”.

Consider `NCCCCc1ccccc1` [compound D, 4-phenyl-butylamine], for which, in the experiment with isolated rat adipocytes, the “stimulation of glucose transport at low concentration compared with A and B vanadium salts” value is “higher”; the “maximal stimulatory effect on glucose transport, compounds compared” value is “similar”. For the same molecule, the “stimulation of glucose transport” value in the experiment on isolated rat adipocytes (setting [4]) was “markedly stimulated”.

Regarding `NCCc1ccc(F)cc1` [compound A, 2-(4-fluoro-phenyl)-ethylamine], the “stimulation of glucose transport” value in the experiment on isolated rat adipocytes (setting [4]) is reported as “markedly stimulated”.

Regarding `NCCCc1ccccc1` [compound B, 3-phenyl-propylamine], in the experiment with isolated rat adipocytes (setting [4]), the “stimulation of glucose transport” value was “markedly stimulated”.

In the case of `NCc1ccc(F)cc1` [compound C, 4-fluoro-benzylamine], in the experiment with isolated rat adipocytes, the “stimulation of glucose transport at low concentration compared with A and B vanadium salts” value is listed as “higher”; the “maximal stimulatory effect on glucose transport, compounds compared” value is listed as “similar”. Moreover, the “stimulation of glucose transport” value in the experiment with isolated rat adipocytes (setting [4]) is given as “markedly stimulated”.

On to “pentaquis(benzylammonium) decavanadate [Example B5V10]”, for which the “stimulatory effect on glucose transport in the presence of semicarbazide” value with isolated rat adipocytes is recorded as “blocked”; in the experiment on isolated rat adipocytes (listed as pentaquis(benzylammonium) decavanadate) it was “inhibited”. Also, in the experiment on isolated rat adipocytes (setting [4]), the “stimulation of glucose transport” value is “pronounced stimulation”.
